Test results as given in the NIST ThermoML archive (doi:10.1021/je200903m).

Details: Liquid, isochoric method

CCCCCCn1cc[n+](C)c1.F[B-](F)(F)F [1-hexyl-3-methylimidazolium tetrafluoroborate]
Details	mass density [kg/m3]
219.92 K, 2501.7 kPa	1205.15
225.14 K, 11244 kPa	1204.69
230.79 K, 1012.8 kPa	1196.2
231.39 K, 21744 kPa	1204.14
236.44 K, 10093 kPa	1195.71
236.46 K, 30111 kPa	1203.69
242.31 K, 19417 kPa	1195.2
243.65 K, 1941.6 kPa	1186.98
243.68 K, 41792 kPa	1203.05
248.82 K, 49885 kPa	1202.6
249.02 K, 10085 kPa	1186.52
249.02 K, 30013 kPa	1194.61
255.69 K, 20148 kPa	1185.95
255.99 K, 40643 kPa	1194.01
256.48 K, 1742.5 kPa	1177.35
262.31 K, 10140 kPa	1176.87
262.31 K, 30102 kPa	1185.39
263.02 K, 51186 kPa	1193.4
268.9 K, 59865 kPa	1192.9
269.12 K, 19855 kPa	1176.3
269.39 K, 40201 kPa	1184.79
269.9 K, 2119.2 kPa	1166.18
275.8 K, 10046 kPa	1165.7
275.8 K, 29402 kPa	1175.74
276.43 K, 50285 kPa	1184.19
283.5 K, 20904 kPa	1165.06
283.57 K, 60349 kPa	1183.59
283.61 K, 39900 kPa	1175.1
284.27 K, 2189.9 kPa	1156.39
290.66 K, 30442 kPa	1164.48
290.67 K, 30768 kPa	1165.27
290.73 K, 10282 kPa	1155.88
290.73 K, 29904 kPa	1164.49
290.94 K, 49928 kPa	1174.49
298.15 K, 104 kPa	1146.14
298.15 K, 39688 kPa	1164.06
298.15 K, 40557 kPa	1164.66
298.17 K, 39707 kPa	1163.88
298.17 K, 40239 kPa	1163.87
298.52 K, 20112 kPa	1155.26
299.11 K, 712.5 kPa	1145.27
299.38 K, 61164 kPa	1173.79
305.93 K, 49286 kPa	1163.44
305.93 K, 49685 kPa	1163.24
306.82 K, 10007 kPa	1144.66
306.83 K, 30854 kPa	1154.59
314.42 K, 60539 kPa	1162.55
315.25 K, 20171 kPa	1144
315.38 K, 41468 kPa	1153.9
315.84 K, 1234.2 kPa	1133.94
322.71 K, 50376 kPa	1153.32
323.55 K, 9964.4 kPa	1133.35
323.55 K, 29837 kPa	1143.36
330.59 K, 59794 kPa	1152.68
332.16 K, 39991 kPa	1142.68
332.36 K, 19953 kPa	1132.67
333.47 K, 1089.8 kPa	1121.71
340.92 K, 49956 kPa	1141.99
341.61 K, 9779.8 kPa	1121.11
341.63 K, 29941 kPa	1131.97
349.19 K, 1374.3 kPa	1111.71
349.88 K, 60027 kPa	1141.28
350.49 K, 39672 kPa	1131.28
351.2 K, 20298 kPa	1120.38
357.12 K, 9595.1 kPa	1111.13
357.12 K, 26381 kPa	1119.93
357.12 K, 46792 kPa	1130.77

CCn1cc[n+](C)c1.O=S(=O)([O-])C(F)(F)F [1-ethyl-3-methylimidazolium trifluoromethanesulfonate]
Details	mass density [kg/m3]
264.14 K, 39698 kPa	1434.17
264.21 K, 29714 kPa	1429.2
264.31 K, 10134 kPa	1419.79
265.07 K, 1265.2 kPa	1414.41
271.03 K, 50162 kPa	1433.46
271.03 K, 50199 kPa	1433.45
271.04 K, 9677.3 kPa	1413.82
271.04 K, 11097 kPa	1414.79
271.04 K, 19702 kPa	1419.12
271.04 K, 29909 kPa	1424.08
271.04 K, 30156 kPa	1424.07
271.04 K, 40035 kPa	1428.5
271.04 K, 40309 kPa	1428.49
271.04 K, 60071 kPa	1437.92
271.05 K, 20286 kPa	1419.1
271.4 K, 1190.5 kPa	1408.62
272.28 K, 2655.9 kPa	1408.53
277.45 K, 49840 kPa	1427.83
277.68 K, 39776 kPa	1423.39
277.8 K, 30125 kPa	1418.42
277.84 K, 10946 kPa	1407.96
277.84 K, 19967 kPa	1413.12
284.58 K, 20183 kPa	1407.3
284.65 K, 40227 kPa	1417.71
284.69 K, 60421 kPa	1427.09
284.73 K, 50105 kPa	1422.67
284.93 K, 30204 kPa	1412.4
285.1 K, 728.1 kPa	1397.61
291.42 K, 29930 kPa	1406.61
291.49 K, 49838 kPa	1417.02
291.92 K, 10046 kPa	1396.94
291.92 K, 41361 kPa	1412.67
291.94 K, 40088 kPa	1411.69
292.62 K, 61503 kPa	1421.86
298.19 K, 124.2 kPa	1386.18
298.19 K, 39944 kPa	1405.91
299.14 K, 60111 kPa	1416.26
299.19 K, 50157 kPa	1410.96
299.54 K, 20406 kPa	1396.18
300.18 K, 1687.5 kPa	1385.35
305.75 K, 49851 kPa	1405.17
306.58 K, 60078 kPa	1410.23
306.75 K, 10122 kPa	1384.72
306.76 K, 29599 kPa	1395.48
313.35 K, 59888 kPa	1404.41
314.04 K, 19458 kPa	1384.01
314.64 K, 40402 kPa	1394.69
315.41 K, 1377.5 kPa	1372.29
322.27 K, 50268 kPa	1393.94
322.29 K, 30090 kPa	1383.21
322.3 K, 9799.1 kPa	1371.63
329.98 K, 59857 kPa	1393.19
330.68 K, 40501 kPa	1382.4
331.49 K, 1256.6 kPa	1358.62
332.56 K, 22229 kPa	1370.66
338.11 K, 9067.3 kPa	1358
338.47 K, 50063 kPa	1381.64
339.28 K, 30155 kPa	1370.02
346.74 K, 59641 kPa	1380.85
347.76 K, 20122 kPa	1357.09
347.76 K, 40116 kPa	1369.21
